Results as given in US11666661B2, “Methods and compounds for targeted autophagy” (THE REGENTS OF THE UNIVERSITY OF CALIFORNIA, priority 2018, dated 2023).

What was measured:
Assay type in all cases: binding
LC3A (C17) = LC3A (C17) (Homo sapiens, UniProt Q9H492); assay: gel-based ABPP screen of cysteine-reactive covalent ligands against IA-alkyne labeling of LC3A; conditions: for hit that displaced IA-alkyne probe labeling of C17 on LC3A (loss of in-gel fluorescence): pure LC3A protein
Excerpt: The critical part of this platform was to first develop a small-molecule recruiter for an autophagy adapter. We performed chemoproteomics-enabled covalent ligand discovery against the autophagy adapter LC3A, an important autophagy protein involved in substrate recognition, to discover an LC3A-recruiter, which can be combined with a protein targeting ligand via a linker to enable targeted protein autophagy of undruggable targets. […] While the NETS-ester probe appeared to label multiple sites on LC3A, the IA-alkyne probe apparently labeled one site, consistent with only one cysteine within LC3A-C17. Across the LC3 proteins, LC3A is the only protein that bears one cysteine. We next screened our cysteine-reactive covalent ligand library against iodoacetamide-alkyne (IA-alkyne) labeling of C17 on LC3A, and looked for hits that displaced probe-labeling resulting in loss of fluorescence by gel. Through this effort, we identified several cysteine-reactive acrylamide hits, including TRH 1-65, TRH 1-68, TRH 1-170, TRH 1-171, YP 1-44, CC 1-42, CC 1-48, EN2, EN7, EN35, and EN40 (FIGS. 5A-5D). These small-molecule recruiters or analogs of these chemical scaffolds that also bind to LC3A C17 can now be appended to linkers and protein targeting ligands to send specific protein cargo, and associated cellular contents, compartments, cells, or organelles off for targeted protein autophagy and lysososomal degradation. […] Examples of compounds that can be appended onto an autophagy adapter recruiter is JQ1, an inhibitor of bromodomain-containing BRD4 protein (an epigenetic regulator implicated in numerous human cancers). JQ1 can be appended to a linker, and an LC3A recruiter EN7 to degrade BRD4 in cells (FIGS. 7A-7C). Protein autophagy degrader can also be used to broadly recognize misfolded proteins and protein aggregates by conjugating thioflavin T, a general aggregate-protein recognizing compound, to a linker and EN7 to send these toxic protein aggregates and misfolded proteins to the autophagosome for lysosomal degradation (FIG. 8).

p62/SQSTM1 protein = p62/SQSTM1 protein (Homo sapiens, UniProt Q13501); assay: MS/MS of direct adduct on a peptide derived from p62/SQSTM1
p62/SQSTM1 protein, sequence (Q13501 whole entry): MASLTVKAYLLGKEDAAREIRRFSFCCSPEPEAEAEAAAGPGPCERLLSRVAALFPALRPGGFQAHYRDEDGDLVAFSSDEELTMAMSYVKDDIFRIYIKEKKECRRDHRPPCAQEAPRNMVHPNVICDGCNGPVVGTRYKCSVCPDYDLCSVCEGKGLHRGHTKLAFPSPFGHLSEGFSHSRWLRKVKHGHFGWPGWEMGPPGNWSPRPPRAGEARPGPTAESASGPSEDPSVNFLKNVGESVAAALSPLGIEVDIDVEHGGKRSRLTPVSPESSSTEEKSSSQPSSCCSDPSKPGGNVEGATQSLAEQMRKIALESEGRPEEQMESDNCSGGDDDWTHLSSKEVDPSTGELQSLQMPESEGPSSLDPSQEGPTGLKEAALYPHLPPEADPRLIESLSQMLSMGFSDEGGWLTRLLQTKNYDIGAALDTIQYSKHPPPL
Excerpt: FIG. 14. MS/MS data corresponding to the direct adduct of EN96 on a peptide derived from p62/SQSTM1.

SQSTM1 (p62) = SQSTM1 (p62) (Homo sapiens, UniProt Q13501); assay: gel-based ABPP cysteine-reactive covalent ligand screen against SQSTM1 (p62); conditions: FIGS. 10A-10B
SQSTM1 (p62), sequence (Q13501 whole entry): as above
Excerpt: We have performed a cysteine-reactive covalent ligand screen against the autophagy adapter protein SQSTM1 (p62) using gel-based activity-based protein profiling (ABPP) approaches. We have identified several hit compounds that targeted a cysteine on SQSTM1 (FIGS. 10A-10B). […] To test whether we can use this potential SQSTM1 recruiter EN96 in a TADT platform, we synthesized BMF-1-64, which links EN96 to a BRD4 inhibitor JQ1, to determine whether we could degrade BRD4 in a proteasome-independent manner (FIG. 11).

LC3A = LC3A (Homo sapiens, UniProt Q9H492); assay: Gel-based ABPP analysis against LC3A; conditions: IA-alkyne probe
Method: FIGS. 5A-5D. Covalent ligand screen against LC3A. Gel-based ABPP screen of cysteine-reactive ligand library against IA-alkyne labeling of LC3A. Cysteine-reactive covalent ligands were pre-incubated with LC3A pure protein (50 microM) for 30 min at room temperature prior to IA-alkyne labeling of the protein (10 microM) for 30 min at room temperature. Proteins were run on SDS/PAGE and in-gel fluorescence was analyzed.

| SMILES | hit that displaced IA-alkyne probe labeling of C17 on LC3A (loss of in-gel fluorescence) (LC3A (C17)) | further results |
| --- | --- | --- |
| C=CC(=O)NC(c1ccco1)c1ccccc1OC (centres unmarked) [EN35] | hits |  |
| C=CCOc1ccccc1CN(C(=O)CCl)c1ccc2c(c1)OCO2 [EN96] |  | cysteine of p62/SQSTM1 modified (p62/SQSTM1 protein): reacts with C113; potency ranking among covalent ligand hits against SQSTM1 (SQSTM1 (p62)): most potent covalent ligand against SQSTM1 |
| C=CC(=O)N1CCC(C)C(c2ccco2)C1 (centres unmarked) [EN40] | hits |  |
| C=CC(=O)N=C1N=C2C=CC(I)=CN2Cc2ccccc21 [EN7] | hits | concentration down to which the compound binds LC3A (LC3A (C17); FIG. 6): ≥ 1 µM; targeting of C17 of LC3A, lowest concentration (LC3A): ≥ 1 µM |
| C=CC(=O)NCc1ccc(C(=O)N2CCC(c3nc4ccccc4s3)CC2)cc1 [EN2] | hits |  |
